Measurements taken from PMC10313921, “A living ex vivo platform for functional, personalized brain cancer diagnosis” (Cell Reports Medicine, 2023).
Like-named read-outs stand apart in the source and are kept apart here.

Key:
Format in all cases: cell-based, human
[1] = tested on: MS21 (low-passage patient-derived GBM line); assay: Drug screening of MS21 tumor foci on OBSCs; details: for AUC: area under the dose-response curve, trapezoidal rule
Method: (§1) Tumor cells (0.17 μL, 25,000 cells) were seeded onto OBSCs 2h after slicing, with one tumor seeded in the center of each hemisphere for a total of two tumor foci per OBSC. BSM was changed 24h after slicing. Fluorescence images were taken 0 h, 24 h, and 96 h post-seeding for normalization of tumor size. Bioluminescence readouts were also taken at 0 h, 24 h, and 96 h post seeding for assessment of cell viability. Luciferin was added underneath the culture insert and allowed to incubate for 10 min before bioluminescence measurement on an AMI optical imaging system.
(§2) Tumor cells were seeded onto OBSCs 2h after slicing as described above. One day after tumor seeding, six concentrations of each drug were diluted in the media underneath each culture insert, or XRad was applied using an X-Rad 320 Precision X-ray machine (n = 4 tumor foci per concentration; n ≥ 24 tumor foci per drug per cell line). Three days after treatment, the bioluminescence of live tumor cells was measured using an AMI optical imager (Spectral Instruments) and dose-response curves were generated. Tumor survival was normalized to day one tumor fluorescence and compared to an untreated control group.
(§3) Several weighted parameters were factored into an overall drug sensitivity score.
(§4) For DSS parameters 1–6, therapeutic windows were calculated by comparing OBSC toxicity and tumor response at the doses where tumor kill passed through the DSS parameter (Table S1 and S3). For DSS parameter 7, the therapeutic window was calculated by comparing the slopes through the tumor EC50 and the OBSC tox EC50. For DSS parameter 8, the therapeutic window was calculated by comparing the areas under tumor kill and OBSC tox curves. Normalized therapeutic window ratios for DSS parameters 1–8 within each drug-tumor-OBSC interaction were calculated in the following manner: within each window, values ranged from +1 to −1, where values approaching +1 signify increasing tumor kill relative to normal tissue toxicity, and values approaching −1 indicate agents where tumors remained highly viable while toxicity to the normal OBSC tissue was elevated. DSS parameters 9–11 were determined based on the behavior of the tumor in response to the drug, as defined above.
(§5) All individually weighed parameters were added together to generate the DSS. Overall DSS from 0 to 100 signify increasing efficacy in tumor kill relative to OBSC toxicity, while scores from 0 to −100 describe scenarios in which tumors thrive more effectively than OBSCs for a given treatment. Dose-response values were calculated via linear interpolation of raw data, not from best-fit curve equations.

[2] = tested on: LN229 (established GBM line); assay: Drug screening of LN229 tumor foci on OBSCs; details: for AUC: area under the dose-response curve, trapezoidal rule; for EC10: dose required to kill 10% of the tumor; for EC25: dose required to kill 25% of the tumor; for Slope: slope through the EC50
Method: as §1, §2, §3, §4, §5

[3] = tested on: PDIPG (low-passage pediatric patient-derived line); assay: Drug screening of PDIPG tumor foci on OBSCs; details: for AUC: area under the dose-response curve, trapezoidal rule; for EC10: dose required to kill 10% of the tumor; for EC25: dose required to kill 25% of the tumor; for EC75: dose required to kill 75% of the tumor; for Slope: slope through the EC50
Method: as §1, §2, §3, §4, §5

[4] = tested on: GBM8 (high-passage patient-derived GBM line); assay: Drug screening of GBM8 tumor foci on OBSCs; details: for AUC: area under the dose-response curve, trapezoidal rule; for EC10: dose required to kill 10% of the tumor; for EC25: dose required to kill 25% of the tumor; for EC75: dose required to kill 75% of the tumor; for Slope: slope through the EC50
Method: as §1, §2, §3, §4, §5

[5] = tested on: MB231Br (breast cancer metastasis to brain); assay: Drug screening of MB231Br tumor foci on OBSCs; details: for EC50: dose required to kill 50% of the tumor; for EC90: dose required to kill 90% of the tumor; for AUC: area under the dose-response curve, trapezoidal rule; for EC10: dose required to kill 10% of the tumor; for EC25: dose required to kill 25% of the tumor; for Slope: slope through the EC50
[6] = tested on: PIS patient tumor tissue (intracranial sarcoma); assay: Drug screening of uncultured patient tumor tissue PIS on OBSCs; details: PIS patient tissue; scale -100 to +100
Method: as §2
To engraft onto OBSCs, the cryopreserved/thawed or fresh brain tumor tissue was filtered through a 100 μm cell strainer. Each 50 mg of tissue was transfected with 1mL mcherry-FLuc Lentivirus at 1.5e7 vg/ml with 1μL polybrene for 4h at 37°C. After incubation, the brain tumor tissue was washed with PBS three times to remove the residual virus and reconstituted in PBS with a final volume of 150 μL. Then the tissue solution was engrafted atop OBSCs at ∼0.5 mg tissue in 3 μL of PBS on each hemisphere of the slice. The OBSC engrafted with patient tumor tissue was incubated at 37°C with 5% CO2 and 95% humidity. The BSM was changed after 24h and subsequently every 3 days. Tumor treatment studies were executed as described above for tumor lines. The viability of the patient tissue was measured by an AMI optical imaging system with the addition of 1.5 mg/mL luciferin underneath the culture insert.
as §3, §4, §5

[7] = tested on: U373WT (wild-type established GBM line); assay: Drug screening of U373WT tumor foci on OBSCs; details: for EC50: dose required to kill 50% of the tumor; for EC90: dose required to kill 90% of the tumor; for AUC: area under the dose-response curve, trapezoidal rule; for EC10: dose required to kill 10% of the tumor; for EC25: dose required to kill 25% of the tumor; for Slope: slope through the EC50
Method: as §1, §2, §3, §4, §5

[8] = tested on: U373KO (RAD18 knockout of U373WT via CRISPR); assay: Drug screening of U373KO tumor foci on OBSCs; details: U373 KO on OBSCs; for EC50: dose required to kill 50% of the tumor; for EC90: dose required to kill 90% of the tumor; for AUC: area under the dose-response curve, trapezoidal rule; for EC10: dose required to kill 10% of the tumor; for EC25: dose required to kill 25% of the tumor; for Slope: slope through the EC50
Method: as §1, §2, §3, §4, §5

[9] = Homo sapiens, U373 MG, U373 WT on OBSCs
[10] = dose required to kill 75% of the tumor

## COc1cc([C@@H]2c3cc4c(cc3[C@@H](O[C@@H]3O[C@@H]5CO[C@@H](C)O[C@H]5[C@H](O)[C@H]3O)[C@H]3COC(=O)[C@H]23)OCO4)cc(OC)c1O [Etoposide]
[1]; Homo sapiens
  EC50: > 10 µM
  EC90: > 10 µM
[1]; MS21 on OBSCs
  Killing at highest dose: -8.00E-02 fraction of tumor population killed
  AUC: 1.15E+03
[2]
  Killing at highest dose: 4.40E-01 fraction of tumor population killed
  AUC: 6.48E+02
  EC10: 3.7 µM
  EC25: 9.26 µM
  Slope: -1.73E-04
[2]; Homo sapiens, LN-229, dose required to kill 50% of the tumor
  EC50: > 10 µM
[2]; Homo sapiens, LN-229, dose required to kill 90% of the tumor
  EC90: > 10 µM
[2]; Homo sapiens, LN-229, dosed day 1, survival via bioluminescence day 4, linear interpolation
  IC50: > 10 µM
[3]; Homo sapiens
  EC50: 574 µM
  EC90: > 10 µM
  IC50: 574 µM
[3]; PDIPG on OBSCs
  Killing at highest dose: 7.50E-01 fraction of tumor population killed
  AUC: 6.75E+02
  EC10: 222 µM
  EC25: 242 µM
  EC75: 1000 µM
  Slope: -5.87E-04
[4]; GBM8 on OBSCs
  Killing at highest dose: 1.00E+00 fraction of tumor population killed
  AUC: 8.40E+00
  EC10: 0.558 µM
  EC25: 1.74 µM
  EC75: 7.47 µM
  Slope: -8.73E-02
[4]; Homo sapiens
  EC50: 4.6 µM
  EC90: 9.19 µM
  IC50: 5.2 µM
[5]; Homo sapiens, MB231BR on OBSCs
  EC50: 100 µM
  EC90: > 10 µM
[5]; Homo sapiens, MB231Br on OBSCs, dosed day 1, survival via bioluminescence day 4, linear interpolation
  IC50: 100 µM
[5]; MB231BR on OBSCs
  Killing at highest dose: 7.20E-01 fraction of tumor population killed
  AUC: 4.75E+02
  EC10: 5.26 µM
  EC25: 25 µM
  Slope: -3.00E-03
[6]
  DSS (drug sensitivity score): 80
[7]; [9]
  EC50: 260 µM
  EC90: > 10 µM
[7]; Homo sapiens, U373 MG, U373 WT on OBSCs, dosed day 1, survival via bioluminescence day 4, linear interpolation
  IC50: 260 µM
[7]; U373 WT on OBSCs
  Killing at highest dose: 3.30E-01 fraction of tumor population killed
  AUC: 6.12E+02
  EC10: 25.6 µM
  EC25: 65.4 µM
  Slope: -1.26E-04
[7]; U373 WT, scale -100 to +100, tumor kill relative to OBSC toxicity
  DSS (drug sensitivity score): −13
[8]; Homo sapiens, U373 MG
  EC50: 37.8 µM
  EC90: > 10 µM
[8]; Homo sapiens, U373 MG, dosed day 1, survival via bioluminescence day 4, linear interpolation
  IC50: 38 µM
[8]
  Killing at highest dose: 6.38E-01 fraction of tumor population killed
  AUC: 3.37E+02
  EC10: 2.42 µM
  EC25: 6.06 µM
  Slope: -3.13E-03

## N.N.O=C([O-])C1(C(=O)[O-])CCC1.[Pt+2] [Carboplatin]
[1]; MS21 on OBSCs
  Killing at highest dose: 1.00E+00 fraction of tumor population killed
  AUC: 1.47E+02
[1]; MS21 on OBSCs, dose required to kill 10% of the tumor
  EC10: 59.7 µM
[1]; MS21 on OBSCs, dose required to kill 25% of the tumor
  EC25: 71.8 µM
[1]; MS21 on OBSCs, dose required to kill 50% of the tumor, read-out: EC50
  EC50: 91.9 µM
[1]; MS21 on OBSCs, dose required to kill 75% of the tumor
  EC75: 157 µM
[1]; MS21 on OBSCs, dose required to kill 90% of the tumor, read-out: EC90
  EC90: 215 µM
[1]; MS21 on OBSCs, slope through the EC50
  Slope: -1.24E-02
[2]
  Killing at highest dose: 1.00E+00 fraction of tumor population killed
  AUC: 1.22E+02
  EC10: 4.17 µM
  EC25: 14 µM
  Slope: -4.20E-03
[2]; dose required to kill 50% of the tumor
  EC50: 133 µM
[2]; [10]
  EC75: 193 µM
[2]; dose required to kill 90% of the tumor
  EC90: 229 µM
[3]; PDIPG on OBSCs
  Killing at highest dose: 1.00E+00 fraction of tumor population killed
  AUC: 1.79E+02
  EC10: 4.76 µM
  EC25: 20 µM
  EC75: 211 µM
  Slope: -3.59E-03
[3]; PDIPG on OBSCs, dose required to kill 50% of the tumor, read-out: EC50
  EC50: 86.1 µM
[3]; PDIPG on OBSCs, dose required to kill 90% of the tumor, read-out: EC90
  EC90: 583 µM
[4]; GBM8 on OBSCs
  Killing at highest dose: 1.00E+00 fraction of tumor population killed
  AUC: 1.03E+01
  EC10: 1.16 µM
  EC25: 2.91 µM
  EC75: 8.72 µM
  Slope: -8.60E-02
[4]; GBM8 on OBSCs, dose required to kill 50% of the tumor, read-out: EC50
  EC50: 5.81 µM
[4]; GBM8 on OBSCs, dose required to kill 90% of the tumor, read-out: EC90
  EC90: 26 µM
[5]; MB231BR on OBSCs
  Killing at highest dose: 1.00E+00 fraction of tumor population killed
  AUC: 1.89E+02
  EC10: 117 µM
  EC25: 119 µM
  EC50: 122 µM
  EC90: 213 µM
  Slope: -8.00E-02
[5]; MB231BR on OBSCs, dose required to kill 75% of the tumor
  EC75: 125 µM
[6]
  DSS (drug sensitivity score): 88
[7]; U373 WT on OBSCs
  Killing at highest dose: 1.00E+00 fraction of tumor population killed
  AUC: 3.11E+02
  EC10: 93.2 µM
  EC25: 103 µM
  EC50: 176 µM
  EC90: 700 µM
  Slope: -3.40E-03
[7]; U373 WT on OBSCs, dose required to kill 75% of the tumor
  EC75: 250 µM
[8]
  Killing at highest dose: 9.99E-01 fraction of tumor population killed
  AUC: 1.92E+02
  EC10: 9.09 µM
  EC25: 125 µM
  EC50: 172 µM
  EC90: 248 µM
  Slope: -5.29E-03
[8]; [10]
  EC75: 219 µM
